According to ChEMBL document CHEMBL1201862, “PubChem BioAssay data set” (2004):
Activity calls are given as the source filed them.

What was measured:
[1] = biological target: T1, Carboxy-terminal domain RNA polymerase II polypeptide A small phosphatase 1 (Homo sapiens, UniProt Q9GZU7); assay: CTDSP1 inhibitors, concentration-response, biochemical, absorbance readout, ultra-high-throughput screen actives (AID 540297); format: functional
T1 sequence (Q9GZU7 whole entry): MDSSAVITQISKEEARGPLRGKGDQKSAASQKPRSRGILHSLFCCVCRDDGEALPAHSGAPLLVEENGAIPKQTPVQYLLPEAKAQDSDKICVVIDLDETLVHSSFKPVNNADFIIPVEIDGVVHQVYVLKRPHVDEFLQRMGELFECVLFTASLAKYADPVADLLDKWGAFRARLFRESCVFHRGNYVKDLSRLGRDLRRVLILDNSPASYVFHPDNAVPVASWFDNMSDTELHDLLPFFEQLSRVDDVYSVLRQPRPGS

[2] = test system: H9c2; assay: cells; format: functional, cell-based; conditions: Rattus norvegicus, H9c2, Myocardium;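 also: confirmatory concentration-response retest of ultra-high-throughput screening hits for modulation of myocardial damage; cell death induced by hydrogen peroxide oxidative stress; compound pretreatment for 60 min then peroxide exposure for 2 h; potency is for protecting the cells against peroxide damage rather than for killing them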
[3] = biological target: T2, Corticotropin-releasing factor receptor 2/Corticotropin-releasing factor-binding protein (Homo sapiens, UniProt P24387+Q13324); assay: Dose Response confirmation of uHTS hits for small molecule antagonists of the CRF-binding protein and CRF-R2 receptor complex.; format: functional; conditions: read-out: IC50_Mean
T2 sequence (Q13324 whole entry): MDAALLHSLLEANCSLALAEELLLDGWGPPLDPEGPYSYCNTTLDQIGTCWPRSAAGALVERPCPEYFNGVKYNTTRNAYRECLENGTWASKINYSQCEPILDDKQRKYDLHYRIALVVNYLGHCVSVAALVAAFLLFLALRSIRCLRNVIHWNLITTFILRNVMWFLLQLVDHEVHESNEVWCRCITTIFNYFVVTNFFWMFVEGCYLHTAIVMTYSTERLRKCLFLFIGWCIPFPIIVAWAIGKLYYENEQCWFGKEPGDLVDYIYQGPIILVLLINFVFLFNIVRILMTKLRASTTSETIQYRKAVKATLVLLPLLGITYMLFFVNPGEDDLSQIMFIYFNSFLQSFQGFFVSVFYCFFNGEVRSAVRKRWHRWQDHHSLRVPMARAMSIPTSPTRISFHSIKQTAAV
T2 sequence (P24387 whole entry): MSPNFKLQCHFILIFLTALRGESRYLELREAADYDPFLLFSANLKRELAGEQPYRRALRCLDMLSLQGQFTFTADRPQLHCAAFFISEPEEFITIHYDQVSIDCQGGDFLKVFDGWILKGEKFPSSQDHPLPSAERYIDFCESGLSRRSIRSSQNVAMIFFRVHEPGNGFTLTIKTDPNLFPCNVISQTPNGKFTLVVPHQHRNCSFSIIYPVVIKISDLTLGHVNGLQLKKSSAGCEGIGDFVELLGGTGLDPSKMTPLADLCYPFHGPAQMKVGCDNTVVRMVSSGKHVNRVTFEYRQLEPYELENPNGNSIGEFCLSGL

[4] = biological target: T2, Corticotropin-releasing factor receptor 2/Corticotropin-releasing factor-binding protein; assay: activators of CRF receptor 2 with binding protein – uHTS hits, confirmation (AID 602473); format: functional; conditions: read-out: EC50_Mean
[5] = Luminescence Cell-Based Dose Confirmation HTS to Identify Activators of 5'UTR Stem-Loop Driven Alpha-Synuclein mRNA Translation in H4 Neuroglioblastoma Cells. [Related pubchem assays: 1829 (Project Summary), 1814 (Primary HTS)]; format: functional
[6] = Luminescence Cell-Based Dose Response HTS to Identify Activators of Luciferase Translation or Activity in H4 […] Cells. [Related pubchem assays: 1829 (Project Summary), 1814 (Primary HTS)]; format: functional
[7] = test system: H4; assay: Luminescence Cell-Based Dose Response HTS to Identify Activators of 5'UTR Stem-Loop Driven Prion Protein mRNA Translation in H4 Neuroglioblastoma Cells. [Related pubchem assays: 1829 (Project Summary), 1814 (Primary HTS)]; format: functional; conditions: Homo sapiens
[8] = biological target: T3, Polyadenylate-binding protein 1 (Homo sapiens, UniProt P11940); assay: MLLE binding blockers, Cy5 peptide tracer – biochemical, fluorescence polarization, Cy5-PAM2 peptide, secondary, miRNA deadenylation inhibitor project, dose response (AID 602260); format: functional; conditions: read-out: IC50_Mean
[9] = biological target: T3, Polyadenylate-binding protein 1; assay: MLLE domain peptide-binding blockers, IC50 – biochemical, fluorescence polarization, FITC-PAM2 peptide, dose response (AID 602259); format: functional; conditions: read-out: IC50_Mean
[10] = biological target: T4, High affinity choline transporter 1 (Homo sapiens, UniProt Q9GZV3); assay: human choline transporter blockers, potency – cell-based, 5-point CRC, membrane potential dye, dose response (AID 504840); format: functional
T4 sequence (Q9GZV3 whole entry): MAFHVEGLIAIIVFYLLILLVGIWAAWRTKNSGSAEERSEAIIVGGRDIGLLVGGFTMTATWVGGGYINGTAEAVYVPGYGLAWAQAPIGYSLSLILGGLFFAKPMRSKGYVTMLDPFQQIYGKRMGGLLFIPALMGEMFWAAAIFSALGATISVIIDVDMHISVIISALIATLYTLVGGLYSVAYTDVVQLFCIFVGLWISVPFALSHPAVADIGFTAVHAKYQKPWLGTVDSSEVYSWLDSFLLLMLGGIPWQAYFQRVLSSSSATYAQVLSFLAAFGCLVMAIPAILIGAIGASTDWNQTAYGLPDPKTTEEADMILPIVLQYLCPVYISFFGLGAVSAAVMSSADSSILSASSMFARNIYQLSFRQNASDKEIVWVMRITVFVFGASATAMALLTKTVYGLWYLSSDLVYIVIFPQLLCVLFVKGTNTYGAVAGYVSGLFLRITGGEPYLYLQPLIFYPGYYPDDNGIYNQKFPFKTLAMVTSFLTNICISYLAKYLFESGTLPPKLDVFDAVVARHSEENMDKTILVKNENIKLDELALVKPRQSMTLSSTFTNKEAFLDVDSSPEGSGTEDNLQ

[11] = reduction of Shn3 3'UTR-driven luciferase in osteoblasts – cell-based, Clone20 osteoblasts, firefly luciferase, cherry-picked, dose response (AID 624132); format: functional;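 also: firefly luciferase luminescence from reporter carrying the Shn3 3'UTR in osteoblasts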
[12] = loss of viability in HepG2 cells – cell-based, CellTiter-Glo, cherry-picked, cytotoxicity control for Shn3 inhibitor project, dose response (AID 624134); format: functional
[13] = non-specific 3'UTR reporter inhibition in Clone20-Shn3RL – cell-based, Renilla luciferase, cherry-picked, counter-screen for Shn3 inhibitor project, dose response (AID 624133); format: functional

T3 sequence (P11940 whole entry, the tested form may be a part): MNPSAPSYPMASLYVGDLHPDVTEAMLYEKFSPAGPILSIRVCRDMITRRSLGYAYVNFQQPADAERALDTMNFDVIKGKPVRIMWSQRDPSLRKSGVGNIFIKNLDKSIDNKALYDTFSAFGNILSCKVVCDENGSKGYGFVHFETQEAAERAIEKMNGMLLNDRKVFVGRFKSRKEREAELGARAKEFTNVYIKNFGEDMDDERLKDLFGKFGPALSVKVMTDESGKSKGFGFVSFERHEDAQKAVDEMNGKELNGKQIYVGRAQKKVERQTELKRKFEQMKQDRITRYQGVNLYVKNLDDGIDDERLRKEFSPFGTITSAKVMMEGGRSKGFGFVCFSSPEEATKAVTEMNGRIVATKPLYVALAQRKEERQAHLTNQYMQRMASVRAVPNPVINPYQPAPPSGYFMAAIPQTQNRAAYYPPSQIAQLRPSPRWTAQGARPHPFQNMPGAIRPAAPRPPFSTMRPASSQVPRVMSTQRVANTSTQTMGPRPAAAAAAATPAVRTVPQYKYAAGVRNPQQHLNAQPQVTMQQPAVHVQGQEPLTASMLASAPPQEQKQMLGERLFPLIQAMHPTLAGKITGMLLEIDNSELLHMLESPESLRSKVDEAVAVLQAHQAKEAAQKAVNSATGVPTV

SMILES: COc1ccc(/C=C/C(=O)OCC(=O)NCc2ccco2)cc1OC
- IC50 [1]: 14.5 µM (active)

SMILES: Cn1c(=O)c(NC(=O)c2ccccc2)c2n(c1=S)CCCCC2
- IC50 [1]: 14.3 µM (active)

SMILES: Cn1c(NN)nc2c1c(=O)n(Cc1ccccc1)c(=O)n2C
- IC50 [1]: 25.2 µM (active)

SMILES: CNC(=O)c1cccc(NC(=O)c2cc(-c3ccccc3)nc3c2cnn3C(C)C)c1
- IC50 [2]: > 79 µM (inactive)

SMILES: O=C(NCC(=O)N(Cc1cccs1)C(C(=O)NC1CCCCC1)c1ccco1)c1cccs1 (configuration not stated)
- IC50 [2]: 8.09 µM (active)

SMILES: Cc1ccc(NC(=O)COC(=O)CN2C(=O)NC3(CCCC3)C2=O)cc1S(=O)(=O)N(C)C
- IC50 [3]: > 47.1 µM (inactive)
- EC50 [4]: > 53 µM (inactive)

SMILES: CC(C)(C)c1ccc(C(=O)NNC(=O)C2CCCCC2)cc1
- EC50 [5]: 19.6 µM (active)
- EC50 [6]: 30.7 µM (active)
- EC50 [7]: 59.3 µM (active)

SMILES: Cc1cc(Cl)ccc1N=C(S)Nc1cccnc1
- IC50 [8]: > 66 µM (inactive)
- IC50 [9]: > 66 µM (inactive)

SMILES: O=[N+]([O-])c1cccn2cc(-c3ccc(Br)cc3)nc12
- EC50 [7]: > 120 µM (not active)
- IC50 [1]: 9.74 µM (active)

SMILES: COCCn1c(CN2CCN(c3cccc(Cl)c3)CC2)nc2c1c(=O)n(C)c(=O)n2C
- IC50 [10]: 12.3 µM (active)
- AC50 [11]: 10.7 µM (active)
- AC50 [12]: 52.3 µM (active)
- AC50 [13]: 11 µM (active)

SMILES: Clc1ccc(-c2csc(N3CCOCC3)n2)cc1
- IC50 [3]: > 47.1 µM (inactive)
- EC50 [4]: > 53 µM (inactive)

SMILES: COc1ccc(Cl)cc1N=C(S)Nc1ccccc1F
- IC50 [8]: > 66 µM (inactive)
- IC50 [9]: > 66 µM (inactive)

SMILES: CN1/C(=C\C(=O)c2cccc([N+](=O)[O-])c2)Sc2ccccc21
- IC50 [8]: > 66 µM (inactive)
- IC50 [9]: > 66 µM (inactive)

SMILES: COc1ccccc1OCCSc1nc(O)c2ccccc2n1
- IC50 [2]: 14.4 µM (active)

SMILES: Cc1nn(C)c(C)c1NC(=O)c1cc2nc(-c3ccco3)cc(C(F)(F)F)n2n1
- IC50 [3]: > 47.1 µM (inactive)
- EC50 [4]: > 53 µM (inactive)

SMILES: COc1cccc(OC)c1C(=O)Nc1ccc(Br)c(C(=O)c2ccccc2)c1
- IC50 [2]: 31.1 µM (inactive)

SMILES: CCOc1cccc(-c2csc(C3COc4ccccc4O3)n2)c1 (configuration not stated)
- EC50 [5]: 13.4 µM (active)
- EC50 [7]: 37.5 µM (active)

SMILES: COc1ccc(-c2cc(C(F)F)n3ncc(C(=O)Nc4ccc(C(=O)N5CCOCC5)cc4)c3n2)cc1
- IC50 [2]: > 79 µM (inactive)

SMILES: O=[N+]([O-])c1ccc(O)c(CSc2nnnn2-c2ccccc2)c1
- IC50 [10]: 12 µM (active)

SMILES: COc1ccc(CN2CCN(C(=O)c3cccs3)CC2)c(OC)c1OC
- IC50 [3]: > 47.1 µM (inactive)
- EC50 [4]: > 53 µM (inactive)

SMILES: CCc1nc2cccnc2n1-c1ccc(C(=O)O)cc1
- IC50 [8]: > 66 µM (inactive)
- IC50 [9]: 49.5 µM (inactive)

SMILES: c1ccc(NC2=Nc3ccccc3CS2)cc1
- EC50 [5]: 0.465 µM (active)
- EC50 [6]: 0.409 µM (active)

SMILES: O=[N+]([O-])c1ccc(C(O)CSC(=S)N2CCCCC2)cc1 (configuration not stated)
- EC50 [5]: 7.46 µM (active)
- EC50 [6]: 56.4 µM (active)
- EC50 [7]: 32.7 µM (active)

SMILES: COC(=O)CC(NC(=S)NC(=O)c1ccccc1)c1ccc(Br)cc1 (configuration not stated)
- IC50 [8]: > 66 µM (inactive)
- IC50 [9]: > 66 µM (inactive)

SMILES: CSc1nc2ncc(-c3ccsc3)c(N)n2n1
- EC50 [5]: > 120 µM (not active)
- EC50 [6]: 19.5 µM (active)
- EC50 [7]: 27.2 µM (active)

SMILES: COc1cccc(NC(=O)COC(=O)c2ccc(S(=O)(=O)NCc3ccco3)cc2)c1
- IC50 [1]: 7.96 µM (active)

SMILES: Cn1c2c(c(=O)[nH]c1=O)C(c1ccc(O)cc1)C1=C(O)c3ccccc3C1=N2 (configuration not stated)
- EC50 [5]: > 120 µM (not active)
- EC50 [6]: > 120 µM (not active)
- EC50 [7]: > 120 µM (not active)

SMILES: NCCCCCc1nnc(SCc2ccc(Cl)c(Cl)c2)o1
- IC50 [10]: 13.2 µM (active)

SMILES: O=C(NC1=NCCS1)c1cccs1
- IC50 [8]: > 66 µM (inactive)
- IC50 [9]: > 66 µM (inactive)

SMILES: CC1(C)Cc2ccccc2-c2c1c(=O)n(Cc1ccccc1)c1nnnn21
- IC50 [3]: > 47.1 µM (inactive)
- EC50 [4]: > 53 µM (inactive)

SMILES: O=C1c2ccccc2C2C3=C(O)CC(c4ccco4)CC3=Nc3ccccc3N12 (configuration not stated)
- EC50 [5]: > 120 µM (not active)
- EC50 [6]: 41 µM (active)
- EC50 [7]: > 120 µM (not active)

SMILES: COc1ccc(NC(=O)NCCCN2CCc3ccccc3C2)cc1
- IC50 [3]: > 47.1 µM (inactive)
- EC50 [4]: > 53 µM (inactive)

SMILES: Cc1cc(C)nc(N2N=C(CSc3ccc(Cl)cc3)CC2=O)n1
- IC50 [10]: 15.1 µM (active)

SMILES: CC(c1nc(O)c2ccccc2n1)N(C)c1ccc2ccccc2c1 (configuration not stated)
- IC50 [8]: > 66 µM (inactive)
- IC50 [9]: > 66 µM (inactive)

SMILES: COc1cc2c(C(=O)NCc3ccccn3)cn(CC(C)C)c(=O)c2cc1OC
- IC50 [2]: > 79 µM (inactive)

SMILES: Cc1ccc(C(C)C)c(OCC(=O)NS(=O)(=O)c2ccc(Cl)cc2)c1
- IC50 [10]: 11.8 µM (active)

SMILES: CCN1C(=O)[C@H]2[C@H]3CN=C(SCC4CC4)N3[C@@](Cc3ccccc3)(C(=O)OC)[C@H]2C1=O
- IC50 [1]: 12.1 µM (active)

SMILES: CCc1ccc(NC(=O)Cn2nc(C(=O)O)c3ccccc3c2=O)cc1
- IC50 [3]: > 47.1 µM (inactive)
- EC50 [4]: > 53 µM (inactive)

SMILES: Cc1ccc2c(C)c(C(=O)N3CCC(N4CCC(C(=O)NC5CC5)CC4)CC3)oc2c1
- IC50 [10]: 14.5 µM (active)

SMILES: NC(=S)N/N=C1/CCSc2ccc3ccccc3c21
- IC50 [10]: 6.48 µM (active)

SMILES: N#C/C(=N\Nc1cccc(Cl)c1)C(=O)c1ccccc1
- IC50 [10]: 13.8 µM (active)
- EC50 [4]: > 53 µM (inactive)
